Measured values published in PubChem BioAssay AID2060891 (Molecular Pharmacology Branch, DTP, NCI, 2025).

tested on: K98450-129-R-PDC complex spheroid growth, percent test/control; assay: Anticancer human tumor K98450-129-R-PDC patient-derived colon adenocarcinoma cell line growth inhibition [RAS]; conditions: second compound 0.0316 µM; first compound 0.1 µM; stronger effect = lower value
Method in brief: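 Agents were tested in combination matrices in half-log decrements from a top concentration at or near clinical Cmax (10 microM if undetermined). Targets were multi-cell spheroids of tumour lines plus HUVEC and MSC stromal cells.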
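Also: luminescence used as a proxy for viable cell amount; spheroids exposed to agents for seven days before the viability readout.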

Compound | viability, T/C [%]
C[C@@H](NC(=O)c1ncnc(N)c1Cl)c1ncc(C(=O)Nc2cc(C(F)(F)F)c(Cl)cn2)s1 + C=CC(=O)N1CCN(c2nc(OCC3CCCN3C)nc3c(F)c(-c4nc(N)cc(C)c4C(F)(F)F)c(Cl)cc23)C(C)C1 | 80.2

same assay, conditions: second compound 0.0316 µM; first compound 0.316 µM; stronger effect = lower value

Compound | viability, T/C [%]
CC(C)NCC(C(=O)N1CCN(c2ncnc3c2C(C)CC3O)CC1)c1ccc(Cl)cc1 (stereo unspecified) + C=CC(=O)N1CCN(c2nc(OCC3CCCN3C)nc3c(F)c(-c4nc(N)cc(C)c4C(F)(F)F)c(Cl)cc23)C(C)C1 | 65.9
CC1(O)CCCC1n1c(=O)c(C(F)F)cc2cnc(NC3CCN(S(C)(=O)=O)CC3)nc21 (stereo unspecified) + C=CC(=O)N1CCN(c2nc(OCC3CCCN3C)nc3c(F)c(-c4nc(N)cc(C)c4C(F)(F)F)c(Cl)cc23)C(C)C1 | 57.9
CCN1CCN(Cc2ccc(Nc3ncc(F)c(-c4cc(F)c5nc(C)n(C(C)C)c5c4)n3)nc2)CC1 + C=CC(=O)N1CCN(c2nc(OCC3CCCN3C)nc3c(F)c(-c4nc(N)cc(C)c4C(F)(F)F)c(Cl)cc23)C(C)C1 | 32.4
C[C@@H](NC(=O)c1ncnc(N)c1Cl)c1ncc(C(=O)Nc2cc(C(F)(F)F)c(Cl)cn2)s1 + C=CC(=O)N1CCN(c2nc(OCC3CCCN3C)nc3c(F)c(-c4nc(N)cc(C)c4C(F)(F)F)c(Cl)cc23)C(C)C1 | 76.3

same assay, conditions: second compound 0.0316 µM; first compound 1 µM; stronger effect = lower value

Compound | viability, T/C [%]
CC(C)NCC(C(=O)N1CCN(c2ncnc3c2C(C)CC3O)CC1)c1ccc(Cl)cc1 (stereo unspecified) + C=CC(=O)N1CCN(c2nc(OCC3CCCN3C)nc3c(F)c(-c4nc(N)cc(C)c4C(F)(F)F)c(Cl)cc23)C(C)C1 | 67.3
CC1(O)CCCC1n1c(=O)c(C(F)F)cc2cnc(NC3CCN(S(C)(=O)=O)CC3)nc21 (stereo unspecified) + C=CC(=O)N1CCN(c2nc(OCC3CCCN3C)nc3c(F)c(-c4nc(N)cc(C)c4C(F)(F)F)c(Cl)cc23)C(C)C1 | 47.5
CCN1CCN(Cc2ccc(Nc3ncc(F)c(-c4cc(F)c5nc(C)n(C(C)C)c5c4)n3)nc2)CC1 + C=CC(=O)N1CCN(c2nc(OCC3CCCN3C)nc3c(F)c(-c4nc(N)cc(C)c4C(F)(F)F)c(Cl)cc23)C(C)C1 | 31.9
C[C@@H](NC(=O)c1ncnc(N)c1Cl)c1ncc(C(=O)Nc2cc(C(F)(F)F)c(Cl)cn2)s1 + C=CC(=O)N1CCN(c2nc(OCC3CCCN3C)nc3c(F)c(-c4nc(N)cc(C)c4C(F)(F)F)c(Cl)cc23)C(C)C1 | 77.2

same assay, conditions: second compound 0.0316 µM; first compound 3.16 µM; stronger effect = lower value

Compound | viability, T/C [%]
CC(C)NCC(C(=O)N1CCN(c2ncnc3c2C(C)CC3O)CC1)c1ccc(Cl)cc1 (stereo unspecified) + C=CC(=O)N1CCN(c2nc(OCC3CCCN3C)nc3c(F)c(-c4nc(N)cc(C)c4C(F)(F)F)c(Cl)cc23)C(C)C1 | 75
CC1(O)CCCC1n1c(=O)c(C(F)F)cc2cnc(NC3CCN(S(C)(=O)=O)CC3)nc21 (stereo unspecified) + C=CC(=O)N1CCN(c2nc(OCC3CCCN3C)nc3c(F)c(-c4nc(N)cc(C)c4C(F)(F)F)c(Cl)cc23)C(C)C1 | 34.4
C[C@@H](NC(=O)c1ncnc(N)c1Cl)c1ncc(C(=O)Nc2cc(C(F)(F)F)c(Cl)cn2)s1 + C=CC(=O)N1CCN(c2nc(OCC3CCCN3C)nc3c(F)c(-c4nc(N)cc(C)c4C(F)(F)F)c(Cl)cc23)C(C)C1 | 80

same assay, conditions: second compound 0.0316 µM; first compound 10 µM; stronger effect = lower value

Compound | viability, T/C [%]
CC(C)NCC(C(=O)N1CCN(c2ncnc3c2C(C)CC3O)CC1)c1ccc(Cl)cc1 (stereo unspecified) + C=CC(=O)N1CCN(c2nc(OCC3CCCN3C)nc3c(F)c(-c4nc(N)cc(C)c4C(F)(F)F)c(Cl)cc23)C(C)C1 | 75.5
CC1(O)CCCC1n1c(=O)c(C(F)F)cc2cnc(NC3CCN(S(C)(=O)=O)CC3)nc21 (stereo unspecified) + C=CC(=O)N1CCN(c2nc(OCC3CCCN3C)nc3c(F)c(-c4nc(N)cc(C)c4C(F)(F)F)c(Cl)cc23)C(C)C1 | 32
C[C@@H](NC(=O)c1ncnc(N)c1Cl)c1ncc(C(=O)Nc2cc(C(F)(F)F)c(Cl)cn2)s1 + C=CC(=O)N1CCN(c2nc(OCC3CCCN3C)nc3c(F)c(-c4nc(N)cc(C)c4C(F)(F)F)c(Cl)cc23)C(C)C1 | 65.1

same assay, conditions: second compound 0.1 µM; first compound 0.000316 µM; stronger effect = lower value

Compound | viability, T/C [%]
CC(C)n1nc(-c2ccc3oc(N)nc3c2)c2c(N)ncnc21 + C=CC(=O)N1CCN(c2nc(OCC3CCCN3C)nc3c(F)c(-c4nc(N)cc(C)c4C(F)(F)F)c(Cl)cc23)C(C)C1 | 54.7

same assay, conditions: second compound 0.1 µM; first compound 0.001 µM; stronger effect = lower value

Compound | viability, T/C [%]
CC(C)n1nc(-c2ccc3oc(N)nc3c2)c2c(N)ncnc21 + C=CC(=O)N1CCN(c2nc(OCC3CCCN3C)nc3c(F)c(-c4nc(N)cc(C)c4C(F)(F)F)c(Cl)cc23)C(C)C1 | 51

same assay, conditions: second compound 0.1 µM; first compound 0.00316 µM; stronger effect = lower value

Compound | viability, T/C [%]
CC(C)n1nc(-c2ccc3oc(N)nc3c2)c2c(N)ncnc21 + C=CC(=O)N1CCN(c2nc(OCC3CCCN3C)nc3c(F)c(-c4nc(N)cc(C)c4C(F)(F)F)c(Cl)cc23)C(C)C1 | 46.1
CCN1CCN(Cc2ccc(Nc3ncc(F)c(-c4cc(F)c5nc(C)n(C(C)C)c5c4)n3)nc2)CC1 + C=CC(=O)N1CCN(c2nc(OCC3CCCN3C)nc3c(F)c(-c4nc(N)cc(C)c4C(F)(F)F)c(Cl)cc23)C(C)C1 | 60.2

same assay, conditions: second compound 0.1 µM; first compound 0.01 µM; stronger effect = lower value

Compound | viability, T/C [%]
CC(C)n1nc(-c2ccc3oc(N)nc3c2)c2c(N)ncnc21 + C=CC(=O)N1CCN(c2nc(OCC3CCCN3C)nc3c(F)c(-c4nc(N)cc(C)c4C(F)(F)F)c(Cl)cc23)C(C)C1 | 44.3
CCN1CCN(Cc2ccc(Nc3ncc(F)c(-c4cc(F)c5nc(C)n(C(C)C)c5c4)n3)nc2)CC1 + C=CC(=O)N1CCN(c2nc(OCC3CCCN3C)nc3c(F)c(-c4nc(N)cc(C)c4C(F)(F)F)c(Cl)cc23)C(C)C1 | 55.1

same assay, conditions: second compound 0.1 µM; first compound 0.0316 µM; stronger effect = lower value

Compound | viability, T/C [%]
CC(C)NCC(C(=O)N1CCN(c2ncnc3c2C(C)CC3O)CC1)c1ccc(Cl)cc1 (stereo unspecified) + C=CC(=O)N1CCN(c2nc(OCC3CCCN3C)nc3c(F)c(-c4nc(N)cc(C)c4C(F)(F)F)c(Cl)cc23)C(C)C1 | 53.1
CC(C)n1nc(-c2ccc3oc(N)nc3c2)c2c(N)ncnc21 + C=CC(=O)N1CCN(c2nc(OCC3CCCN3C)nc3c(F)c(-c4nc(N)cc(C)c4C(F)(F)F)c(Cl)cc23)C(C)C1 | 33.9
CC1(O)CCCC1n1c(=O)c(C(F)F)cc2cnc(NC3CCN(S(C)(=O)=O)CC3)nc21 (stereo unspecified) + C=CC(=O)N1CCN(c2nc(OCC3CCCN3C)nc3c(F)c(-c4nc(N)cc(C)c4C(F)(F)F)c(Cl)cc23)C(C)C1 | 55.9
CCN1CCN(Cc2ccc(Nc3ncc(F)c(-c4cc(F)c5nc(C)n(C(C)C)c5c4)n3)nc2)CC1 + C=CC(=O)N1CCN(c2nc(OCC3CCCN3C)nc3c(F)c(-c4nc(N)cc(C)c4C(F)(F)F)c(Cl)cc23)C(C)C1 | 46.6
C[C@@H](NC(=O)c1ncnc(N)c1Cl)c1ncc(C(=O)Nc2cc(C(F)(F)F)c(Cl)cn2)s1 + C=CC(=O)N1CCN(c2nc(OCC3CCCN3C)nc3c(F)c(-c4nc(N)cc(C)c4C(F)(F)F)c(Cl)cc23)C(C)C1 | 63.8
